Laboratory results: PubChem BioAssay (NCI)
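Each compound was tested at five concentrations against cells in 96-well plates for 48 hours. TGI denotes the concentration required for complete inhibition of growth.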

Tests used:
Test in all cases: DTP human tumour cell line panel, 48 h
OVCAR-3 ovarian = tested on: OVCAR-3 ovarian
HCT-15 colon = tested on: HCT-15 colon
NCI/ADR-RES ovarian = tested on: NCI/ADR-RES ovarian
UACC-62 melanoma = tested on: UACC-62 melanoma
HT29 colon = tested on: HT29 colon
OVCAR-8 ovarian = tested on: OVCAR-8 ovarian
COLO 205 colon = tested on: COLO 205 colon
MDA-MB-435 = tested on: MDA-MB-435
T-47D breast = tested on: T-47D breast
A549 NSCLC = tested on: A549 NSCLC
IGROV1 ovarian = tested on: IGROV1 ovarian
CAKI-1 renal = tested on: CAKI-1 renal
SF-295 CNS = tested on: SF-295 CNS
MDA-MB-231 breast = tested on: MDA-MB-231 breast
SK-MEL-5 melanoma = tested on: SK-MEL-5 melanoma
HOP-62 NSCLC = tested on: HOP-62 NSCLC
SR leukemia = tested on: SR leukemia
M14 melanoma = tested on: M14 melanoma
MDA-N = tested on: MDA-N
SNB-19 CNS = tested on: SNB-19 CNS
SK-MEL-28 melanoma = tested on: SK-MEL-28 melanoma
SNB-75 CNS = tested on: SNB-75 CNS
UACC-257 melanoma = tested on: UACC-257 melanoma
NCI-H460 lung = tested on: NCI-H460 lung
SN12C renal = tested on: SN12C renal
SF-539 CNS = tested on: SF-539 CNS
MOLT-4 leukemia = tested on: MOLT-4 leukemia
HOP-92 NSCLC = tested on: HOP-92 NSCLC
TK-10 renal = tested on: TK-10 renal
NCI-H522 lung = tested on: NCI-H522 lung
PC-3 prostate = tested on: PC-3 prostate
RXF 393 renal = tested on: RXF 393 renal
KM12 colon = tested on: KM12 colon
ACHN renal = tested on: ACHN renal
HCC-2998 colon = tested on: HCC-2998 colon
SK-MEL-2 melanoma = tested on: SK-MEL-2 melanoma
EKVX NSCLC = tested on: EKVX NSCLC
SW-620 colon = tested on: SW-620 colon
HS 578T breast = tested on: HS 578T breast
DU-145 prostate = tested on: DU-145 prostate
RPMI-8226 leukemia = tested on: RPMI-8226 leukemia
NCI-H23 lung = tested on: NCI-H23 lung
HCT-116 colon = tested on: HCT-116 colon
U251 CNS = tested on: U251 CNS
OVCAR-5 ovarian = tested on: OVCAR-5 ovarian
MALME-3M melanoma = tested on: MALME-3M melanoma
SK-OV-3 ovarian = tested on: SK-OV-3 ovarian
MCF7 breast = tested on: MCF7 breast
OVCAR-4 ovarian = tested on: OVCAR-4 ovarian
UO-31 renal = tested on: UO-31 renal
NCI-H226 lung = tested on: NCI-H226 lung
BT-549 breast = tested on: BT-549 breast
SF-268 CNS = tested on: SF-268 CNS
786-0 renal = tested on: 786-0 renal
K-562 leukemia = tested on: K-562 leukemia
LOX IMVI melanoma = tested on: LOX IMVI melanoma
CCRF-CEM leukemia = tested on: CCRF-CEM leukemia
A498 renal = tested on: A498 renal

Measured: TGI

NC(N)=N/N=C\c1ccc(C2CCNCC2)cc1
> 100 µM: all assays above
